Patent US20050282743A1, “Molecular interactions in cells” (Arbor Vita Corporation, priority 2001, published 2005)
Ends that are not written are not given here. Peptide text beside a SMILES is read from it. * marks the point of attachment. Biotin = O=C1N[C@H]2[C@H](CS[C@H]2CCCCC(=O)*)N1

Experiments:
Assay in all cases: G' assay (10 uM PL peptide), results of TABLE 7 and TABLE 12
Type in all cases: binding
[1] = target: T1, PDZ protein (GST-PDZ fusion) (Homo sapiens, UniProt Q12923)
T1 construct: made in house; host or cells: E. coli (DH5alpha, BL21 or JM109)
Method in brief: (§1)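 Binding classes derive from A450 nm of bound biotin-tagged PL peptide. A score of 5 needs A450 above 4 in more than two repeats.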

[2] = target: T2, PDZ protein (GST-PDZ fusion) (Homo sapiens, UniProt Q02410)
T2 construct: made in house; host or cells: E. coli (DH5alpha, BL21 or JM109)
T2 sequence (Q02410 1-837): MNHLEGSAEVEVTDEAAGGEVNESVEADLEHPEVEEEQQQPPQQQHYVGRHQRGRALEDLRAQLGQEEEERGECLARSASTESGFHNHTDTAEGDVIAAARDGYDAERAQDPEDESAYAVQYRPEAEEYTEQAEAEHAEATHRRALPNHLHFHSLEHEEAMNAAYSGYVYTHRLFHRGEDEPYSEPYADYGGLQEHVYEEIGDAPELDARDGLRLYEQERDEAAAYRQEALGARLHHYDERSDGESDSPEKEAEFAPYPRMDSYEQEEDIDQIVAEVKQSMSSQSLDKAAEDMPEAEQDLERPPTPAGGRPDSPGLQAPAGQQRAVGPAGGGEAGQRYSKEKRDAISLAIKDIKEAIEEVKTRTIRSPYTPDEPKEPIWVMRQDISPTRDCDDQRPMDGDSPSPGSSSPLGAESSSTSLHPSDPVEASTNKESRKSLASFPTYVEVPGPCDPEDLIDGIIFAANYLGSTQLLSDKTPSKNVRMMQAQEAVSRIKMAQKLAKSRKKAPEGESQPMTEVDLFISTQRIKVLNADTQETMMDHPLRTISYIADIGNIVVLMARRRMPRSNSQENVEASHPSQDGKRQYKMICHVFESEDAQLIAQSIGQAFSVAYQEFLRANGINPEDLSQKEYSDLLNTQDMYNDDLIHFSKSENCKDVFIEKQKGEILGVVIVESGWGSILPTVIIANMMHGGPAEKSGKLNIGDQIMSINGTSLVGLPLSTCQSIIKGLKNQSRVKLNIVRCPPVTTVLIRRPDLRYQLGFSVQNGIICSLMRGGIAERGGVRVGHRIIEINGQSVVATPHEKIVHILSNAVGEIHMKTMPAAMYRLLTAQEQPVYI
Method in brief: as §1

[3] = tested on: PDZ protein (GST-PDZ fusion)
Method in brief: as §1

T1 sequence (Q12923 whole entry, the tested form may be a part): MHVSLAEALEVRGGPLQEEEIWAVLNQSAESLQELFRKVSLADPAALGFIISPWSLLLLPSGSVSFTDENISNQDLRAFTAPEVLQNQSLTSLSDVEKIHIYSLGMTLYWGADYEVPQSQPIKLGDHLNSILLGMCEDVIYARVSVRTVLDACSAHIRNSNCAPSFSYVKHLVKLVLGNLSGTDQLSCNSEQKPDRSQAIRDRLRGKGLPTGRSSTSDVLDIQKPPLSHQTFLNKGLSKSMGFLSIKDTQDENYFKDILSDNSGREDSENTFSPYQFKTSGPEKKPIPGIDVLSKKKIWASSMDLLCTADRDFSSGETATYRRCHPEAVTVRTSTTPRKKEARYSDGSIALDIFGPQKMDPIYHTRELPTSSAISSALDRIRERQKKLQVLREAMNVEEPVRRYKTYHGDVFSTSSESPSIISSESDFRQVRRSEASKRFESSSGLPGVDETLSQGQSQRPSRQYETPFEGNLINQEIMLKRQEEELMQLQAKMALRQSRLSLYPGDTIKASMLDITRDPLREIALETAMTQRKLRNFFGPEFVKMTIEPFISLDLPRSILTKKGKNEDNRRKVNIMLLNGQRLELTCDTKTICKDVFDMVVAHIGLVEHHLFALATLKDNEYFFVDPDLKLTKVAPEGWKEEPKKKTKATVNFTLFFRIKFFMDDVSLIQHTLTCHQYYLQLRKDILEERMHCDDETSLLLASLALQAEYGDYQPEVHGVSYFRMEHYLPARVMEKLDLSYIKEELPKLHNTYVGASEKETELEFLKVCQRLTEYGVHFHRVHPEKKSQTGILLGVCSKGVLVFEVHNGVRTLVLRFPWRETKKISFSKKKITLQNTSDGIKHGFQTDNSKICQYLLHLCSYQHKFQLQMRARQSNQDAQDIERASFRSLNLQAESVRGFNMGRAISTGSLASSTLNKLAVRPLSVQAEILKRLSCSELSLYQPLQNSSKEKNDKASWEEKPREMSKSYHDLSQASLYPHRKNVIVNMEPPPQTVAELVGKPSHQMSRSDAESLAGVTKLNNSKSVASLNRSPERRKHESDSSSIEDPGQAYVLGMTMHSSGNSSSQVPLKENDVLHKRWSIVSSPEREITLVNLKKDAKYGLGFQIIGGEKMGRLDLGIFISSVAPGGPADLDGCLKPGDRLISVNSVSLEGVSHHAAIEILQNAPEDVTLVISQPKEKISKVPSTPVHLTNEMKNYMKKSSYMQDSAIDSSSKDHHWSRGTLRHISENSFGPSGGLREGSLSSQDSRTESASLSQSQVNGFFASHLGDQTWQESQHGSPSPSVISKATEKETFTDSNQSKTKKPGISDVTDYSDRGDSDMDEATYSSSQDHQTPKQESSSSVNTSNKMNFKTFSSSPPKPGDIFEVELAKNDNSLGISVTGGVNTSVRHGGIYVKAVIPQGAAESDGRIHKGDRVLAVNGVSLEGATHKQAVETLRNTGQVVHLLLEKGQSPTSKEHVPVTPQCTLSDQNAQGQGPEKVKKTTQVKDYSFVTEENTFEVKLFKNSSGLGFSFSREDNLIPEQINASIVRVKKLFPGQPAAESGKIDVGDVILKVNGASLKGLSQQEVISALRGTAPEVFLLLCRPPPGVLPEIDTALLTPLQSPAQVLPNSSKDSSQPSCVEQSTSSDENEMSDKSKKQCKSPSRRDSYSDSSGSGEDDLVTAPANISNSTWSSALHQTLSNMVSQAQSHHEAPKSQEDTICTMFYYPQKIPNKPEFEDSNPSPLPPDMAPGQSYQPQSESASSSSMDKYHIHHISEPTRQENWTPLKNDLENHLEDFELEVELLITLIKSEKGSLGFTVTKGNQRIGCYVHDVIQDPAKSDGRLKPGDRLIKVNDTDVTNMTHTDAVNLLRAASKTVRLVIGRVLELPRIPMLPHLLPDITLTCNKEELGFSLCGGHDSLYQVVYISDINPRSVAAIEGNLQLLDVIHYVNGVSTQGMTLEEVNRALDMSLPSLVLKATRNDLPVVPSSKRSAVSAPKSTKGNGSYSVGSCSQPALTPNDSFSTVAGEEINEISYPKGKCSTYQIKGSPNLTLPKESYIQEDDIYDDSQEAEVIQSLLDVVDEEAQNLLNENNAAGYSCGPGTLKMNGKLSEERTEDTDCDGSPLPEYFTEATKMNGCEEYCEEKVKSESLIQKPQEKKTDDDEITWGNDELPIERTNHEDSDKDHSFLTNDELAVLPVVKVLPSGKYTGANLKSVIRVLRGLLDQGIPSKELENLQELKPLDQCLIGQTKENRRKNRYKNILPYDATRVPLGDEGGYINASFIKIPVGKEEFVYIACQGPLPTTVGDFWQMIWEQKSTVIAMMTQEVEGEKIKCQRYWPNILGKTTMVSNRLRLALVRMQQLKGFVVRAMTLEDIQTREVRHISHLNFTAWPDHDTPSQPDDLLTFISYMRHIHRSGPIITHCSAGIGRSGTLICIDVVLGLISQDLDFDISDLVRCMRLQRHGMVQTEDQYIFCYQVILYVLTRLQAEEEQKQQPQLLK

Compound: CC(C)C[C@H](NC(=O)[C@H](C)NC(=O)[C@H](CO)NC(=O)CNC(=O)[C@@H](NC(=O)CCCC[C@@H]1SC[C@@H]2NC(=O)N[C@@H]21)[C@@H](C)O)C(=O)N[C@@H](CCC(N)=O)C(=O)N[C@@H](C)C(=O)N[C@@H](Cc1c[nH]c2ccccc12)C(=O)N[C@@H](CCCNC(=N)N)C(=O)N[C@@H](Cc1c[nH]cn1)C(=O)N[C@H](C(=O)N[C@@H](CO)C(=O)N[C@@H](CCCNC(=N)N)C(=O)N[C@@H](CCC(N)=O)C(=O)N[C@@H](C)C(=O)N[C@H](C(=O)N[C@@H](CCC(=O)O)C(=O)N[C@@H](CO)C(=O)N[C@H](C(=O)N[C@H](C(=O)O)C(C)C)[C@@H](C)O)[C@@H](C)O)[C@@H](C)O [HPV E6 #66 (modified)] (Biotin-TGSALQAWRHTSRQATESTV-OH; C-terminus assumed)
- Classification ([1]; PDZ PTPL-1, PDZ Domain 2): 3 (A450 nm 2-3)
- Classification ([2]; PDZ Mint 1, PDZ Domain 1, 2): 1 (A450 nm 0-1)
- Classification ([2]; PDZ Mint 1, PDZ Domain 2): 1 (A450 nm 0-1)
- Classification ([3]; PDZ BAI-1, PDZ Domain 2): 5 (A450 nm of 4 more than 2× repeated)
- Classification ([3]; PDZ BAI-1, PDZ Domain 3): 1 (A450 nm 0-1)
- Classification ([3]; PDZ BAI-1, PDZ Domain 5): 1 (A450 nm 0-1)
- Classification ([3]; PDZ FLJ 00011, PDZ Domain 1): 1 (A450 nm 0-1)

Compound: CC[C@H](C)[C@H](NC(=O)[C@H](CCCCN)NC(=O)[C@@H](NC(=O)[C@H](CO)NC(=O)[C@@H]1CCCN1C(=O)[C@H](Cc1ccccc1)NC(=O)[C@@H](NC(=O)[C@@H](NC(=O)[C@H](CCCNC(=N)N)NC(=O)[C@H](CCC(=O)O)NC(=O)[C@H](CC(C)C)NC(=O)[C@H](CC(C)C)NC(=O)[C@H](CC(C)C)NC(=O)[C@@H](NC(=O)CNC(=O)[C@@H](NC(=O)CCCC[C@@H]1SC[C@@H]2NC(=O)N[C@@H]21)C(C)C)[C@@H](C)O)C(C)C)[C@@H](C)CC)C(C)C)C(=O)N[C@@H](C)C(=O)N[C@H](C(=O)N[C@@H](CC(C)C)C(=O)N[C@H](C(=O)O)C(C)C)[C@@H](C)O [Adenovirus E4 Type9]
- Classification ([1]; PDZ PTPL-1, PDZ Domain 2, Protein Optimal Conc 5): 3 (A450 nm 2-3)
- Classification ([1]; PDZ PTPL-1, PDZ Domain 4, PL peptide 10 uM): 4 (A450 nm 3-4)
- Classification ([2]; PDZ Mint 1, PDZ Domain 1, 2, PL peptide 10 uM): 2 (A450 nm 1-2)
- Classification ([2]; PDZ Mint 1, PDZ Domain 2, PL peptide 10 uM): 2 (A450 nm 1-2)
- Classification ([3]; PDZ BAI-1, PDZ Domain 2, Protein Optimal Conc 0.3): 5 (A450 nm of 4 more than 2× repeated)
- Classification ([3]; PDZ BAI-1, PDZ Domain 3, Protein Optimal Conc 0.5): 5 (A450 nm of 4 more than 2× repeated)
- Classification ([3]; PDZ BAI-1, PDZ Domain 4, Protein Optimal Conc 0.3): 5 (A450 nm of 4 more than 2× repeated)
- Classification ([3]; PDZ BAI-1, PDZ Domain 6, PL peptide 10 uM): 1 (A450 nm 0-1)
- Classification ([3]; PDZ Connector Enhancer, PDZ Domain 1, Protein Optimal Conc 5): 3 (A450 nm 2-3)
- Classification ([3]; PDZ FLJ 00011, PDZ Domain 1, PL peptide 10 uM): 1 (A450 nm 0-1)
- Classification ([3]; PDZ HEMBA 1003117, PDZ Domain 1, Protein Optimal Conc 5): 3 (A450 nm 2-3)

Compound: PYSELNYETSHYPASPDSWV (Biotin-PYSELNYETSHYPASPDSWV) [catenin - delta 2]
- Classification ([1]; PDZ PTPL-1, PDZ Domain 2): 5 (A450 nm of 4 more than 2× repeated)
- Classification ([1]; PDZ PTPL-1, PDZ Domain 4): 1 (A450 nm 0-1)
- Classification ([2]; PDZ Mint 1, PDZ Domain 1, 2): 5 (A450 nm of 4 more than 2× repeated)
- Classification ([2]; PDZ Mint 1, PDZ Domain 2): 3 (A450 nm 2-3)
- Classification ([3]; PDZ BAI-1, PDZ Domain 3): 1 (A450 nm 0-1)
- Classification ([3]; PDZ HEMBA 1003117, PDZ Domain 1): 1 (A450 nm 0-1)
